Tests used:
NCI-H1648 = assay: Cell viability (CellTiterGlo) combination dose matrix in NCI-H1648; assay type: cell-based, human; conditions: combination with c-Met inhibitor, 72 h, excluding highest concentration
Experimental: (§1) Compound stocks of both compounds are individually prepared in DMSO. Compounds are serially diluted using a Tecan dispenser to cover a ˜1000× range of concentrations. […] Both single agent and combinations are tested at multiple concentrations, along with controls and one self-cross.
(§2) The cell lines used in this study are purchased from American Type Cell Collection, including human non small cell lung cancer cell lines EBC-1 (which bears c-Met amplification), NCI-H1993 (which bears c-MET amplified), NCI-H1648 (which bears c-Met amplification), NCI-H1573 (which bears c-Met amplification and KRAS mutation) and HCC2935 (EGFR mutation). All cell lines are maintained in their respective culture medium as specified by the provider.
(§3) For the assessment of combination effects, cells are seeded into 384-well plates at 500 cells/well and incubated overnight. […]
(§4) Effects of single agents as well as their combination on cell viability is assessed after 72 hours of incubation at 37° C./5% CO2 by quantification of cellular ATP levels (CellTiterGlo, Promega) using 25 μL reagent/well and n=2 replicate plates per condition. The number/viability of cells at time of compound addition is likewise assessed and used to estimate the population doubling time of a cell line.
(§5) For untreated and treated levels U and T, inhibition is calculated using the formula I=1−T/U, which ranges from 0% to 100% for complete inhibition. […]
(§6) The Loewe expectation [Loewe S., Ergebn Physiol 27: 47-187 (1928)) is calculated at each dose pair CX,Y by finding the inhibition ILoewe such that (CX/ICX)+(CY/ICY)=1, and ICX,Y are the effective concentrations at ILoewe for the fitted single agent curves, using numerical optimization [Berenbaum M C, J Theor Biol 114: 413-431 (1985)]. The “synergy score” S is calculated by averaging the difference between Idata and ILoewe across all the tested combination dose points, excluding the highest concentration point in the dose matrix, which is most likely to be dominated by drug off-target effects. […]

H4 = assay: CellTiter-Glo cell viability dose matrix in H4 glioblastoma cells; assay type: cell-based, human; conditions: H4 (PTEN mutant, HGF expressing)
Experimental: (§7) The PI3K inhibitor COMPOUND C and the c-MET receptor tyrosine kinase inhibitor 2-fluoro-N-methyl-4-[7-quinolin-6-yl-methyl)-imidazo[1,2-b][1,2,4]triazin-2yl]benzamide are evaluated in combination in glioblastoma tumor models. COMPOUND C (10 mM) and 2-fluoro-N-methyl-4-[7-quinolin-6-yl-methyl)-imidazo[1,2-b][1,2,4]triazin-2yl]benzamide (10 mM) are dissolved in DMSO, and are stored in aliquots at −20° C.
(§8) Human Glioblastoma cell lines, U-87 MG (PTEN mutant and HGF expressing line), H4 (PTEN mutant and HGF expressing line), A172 (PTEN mutant line with low HGF expression level) and LN-229 (PTEN wildtype and HGF low) are purchased from American Type Cell Collection and are maintained in a humidified incubator at 37° C. in 5% CO2 in recommended media. All four cell lines express detected MET at the mRNA level.
(§9) The cells are passaged twice a week and the medium is changed every 2 to 3 days. […]
(§10) Cell viability is determined by measuring cellular ATP content using the CellTiter-Glo® (CTG) luminescent cell viability assay (Promega). […] An equal volume of the CTG reagents is added to each well at the end of the compound treatment and luminescence is recorded on an Envision plate reader (Perkin Elmer). Reduced and enhanced luminescent signal values (responses) are calculated relative to untreated (control) cells. […]

A172 = assay: CellTiter-Glo cell viability dose matrix in A172 glioblastoma cells; assay type: cell-based, human; conditions: A172 (PTEN mutant, low HGF)
Experimental: as §7, §8, §9, §10

[1] = test system: U-87 MG human glioblastoma xenograft; assay: U-87 MG xenograft tumor growth inhibition and tumor growth delay; assay type: in vivo, nude mice; conditions: for T/C or T/T0: D13
Experimental: In this experiment, the U-87 MG human glioblastoma xenograft model is used to assess the anti-tumor efficacy of the PI3K inhibitor COMPOUND C and c-Met inhibitor 2-fluoro-N-methyl-4-[7-quinolin-6-yl-methyl)-imidazo[1,2-b][1,2,4]triazin-2yl]benzamide as single agents or in combination. U-87 MG tumor cells obtained from the National Cancer Institute are reported to be homozygous for likely oncogenic variants of CDKN2A, CDKN2C, CDKN2a, and PTEN; no mutations are detected in MET, PIK3CA, or 58 other genes that are frequently altered in neoplastic cells; and HGF expressing.
Mice are treated daily for 21 days with 17.7 and 35.3 mg/kg of the c-Met inhibitor and 32.7 mg/kg COMPOUND C monotherapies, and with the c-Met inhibitor/COMPOUND C dual therapy at 17.7:32.7. An c-Met inhibitor/COMPOUND C combination at the 58.8:5.4 mg/kg dose ratio was included in the study. The control mice received both vehicles, and a standard preclinical temozolomide regimen monitored tumor model performance. The oral treatments began on Day 1 (D1) in nude mice with established subcutaneous tumors. Each animal was euthanized when its tumor reached the predetermined 2000 mm3 endpoint volume, or on D60, whichever came first. The study was terminated on D51. […] Overall efficacy was determined from the times required for tumors to progress to the volume endpoint, and from D51 survival and regression rates. This report describes the methods and results of the U87MG-e326 tumor growth delay experiment.
The animals are fed ad libitum water (reverse osmosis, 1 ppm CI) and NIH 31 Modified and Irradiated Lab Diet® consisting of 18.0% crude protein, 5.0% crude fat, and 5.0% crude fiber. The mice are housed on irradiated Enrich-O'cobs™ Laboratory Animal Bedding in static microisolators on a 12-hour light cycle at 20-22° C. (68-72° F.) and 40-60% humidity.
The U-87 MG tumor line is obtained from the American Type Culture Collection and maintained by serial engraftment in nude mice. A tumor fragment (1 mm^3) is implanted subcutaneously into the right flank of each test mouse. Tumors are calipered in two dimensions to monitor growth as their mean volume approached the desired 100-150 mm^3 range. Tumor size, in mm^3, was calculated from: Tumor Volume=(width^2×length)/2, where width and length (in mm) are measurements of the tumor. Tumor weight can be estimated with the assumption that 1 mg is equivalent to 1 mm^3 of tumor volume. Fourteen days after tumor cell implantation, on D1 of the study, mice with individual tumor volumes of 63-196 mm^3 are sorted into seven groups, with group mean tumor volumes of 122-127 mm^3.
The c-Met inhibitor 2-fluoro-N-methyl-4-[7-quinolin-6-yl-methyl)-imidazo[1,2-b][1,2,4]triazin-2yl]benzamide (di-HCl salt, 84.98% free base) is stored at 4° C. and is added to deionized water at 2× the final concentration and sonicated until dissolved. An equal volume of 0.5% methylcellulose and 0.1% Tween® 80 in deionized water is added to provide a 5.884 mg/mL dosing solution in 0.25% methylcellulose and 0.05% Tween® 80 in deionized water (Vehicle 1). Portions of this solution are diluted with Vehicle 1 to provide 3.53 and 1.765 mg/mL dosing solutions.
COMPOUND C (HCl salt, 91.85% free base) is stored at −20° C. and is added to 1% Tween® 80 in deionized water and sonicated to obtain a uniform suspension at 2× the final concentration. […] The 0.544 mg/mL dosing suspension is obtained by diluting a portion of the first suspension with Vehicle 2.

HCC2935 = assay: Cell viability (CellTiterGlo) combination dose matrix in HCC2935; assay type: cell-based, human; conditions: combination with c-Met inhibitor, 72 h, excluding highest concentration
Experimental: as §1, §2, §3, §4, §5, §6

NCI-H1993 = assay: Cell viability (CellTiterGlo) combination dose matrix in NCI-H1993; assay type: cell-based, human; conditions: combination with c-Met inhibitor, 72 h, excluding highest concentration
Experimental: as §1, §2, §3, §4, §5, §6

NCI-H1573 = assay: Cell viability (CellTiterGlo) combination dose matrix in NCI-H1573; assay type: cell-based, human; conditions: combination with c-Met inhibitor, 72 h, excluding highest concentration
Experimental: as §1, §2, §3, §4, §5, §6

LN-229 = assay: CellTiter-Glo cell viability dose matrix in LN-229 glioblastoma cells; assay type: cell-based, human; conditions: LN229 (PTEN wildtype, HGF low)
Experimental: as §7, §8, §9, §10

U-87 MG = assay: CellTiter-Glo cell viability dose matrix in U-87 MG glioblastoma cells; assay type: cell-based, human; conditions: U87 MG (PTEN mutant, HGF expressing)
Experimental: as §7, §8, §9, §10

EBC-1 = assay: Cell viability (CellTiterGlo) combination dose matrix in EBC-1; assay type: cell-based, human; conditions: combination with c-Met inhibitor, 72 h, excluding highest concentration, 0 no inhibition, 1 = 100% inhibition/stasis, 2 = cell death
Experimental: as §1, §2, §3, §4, §5, §6

[2] = COMPOUND C 32.7 mg/kg (30 mg/kg free base) p.o. qd x21

Structure (SMILES): Nc1cc(C(F)(F)F)c(-c2cc(N3CCOCC3)nc(N3CCOCC3)n2)cn1 [COMPOUND C, 5-(2,6-di-morpholin-4-yl-pyrimidin-4-yl)-4-trifluoromethyl-pyridin-2-ylamine]
- MaxGI (GImax, combination effectiveness) (NCI-H1648): 1.78
- anti-proliferative activity (single agent) (H4): concentration dependent anti-proliferative activity
- anti-proliferative activity (single agent) (A172): concentration dependent anti-proliferative activity
- increase of median TTE ([1]; COMPOUND C 30 mg/kg free base p.o. qd x21): 9.3 days
- % TGD [1, 2]: 79%
- T/C or T/T0 [1, 2]: 31%
- T/C or T/T0 ([1]; COMPOUND C 32.7 mg/kg (30 mg/kg free base) p.o. qd x21, listed as CMPD. C): 31%
- Median TTE ([1]; COMPOUND C 32.7 mg/kg (30 mg/kg free base) p.o. qd x21, endpoint 2000 mm3): 21.0 days
- Regress. ([1]; COMPOUND C 32.7 mg/kg p.o. qd x21, number of animals): 0
- MaxGI (GImax, combination effectiveness) (HCC2935): 1.37
- MaxGI (GImax, combination effectiveness) (NCI-H1993): 1.67
- MaxGI (GImax, combination effectiveness) (NCI-H1573): 1.54
- anti-proliferative activity (single agent) (LN-229): less active
- anti-proliferative activity (single agent) (U-87 MG): concentration dependent anti-proliferative activity
- MaxGI (GImax, combination effectiveness) (EBC-1): 1.83

— patent US20150216870A1, “Combination of PI3K Inhibitor and C-Met Inhibitor” (Novartis AG, priority 2012, published 2015)
